How the values were obtained:
Type in all cases: biochemical
PKR(R510Q) = PKR(R510Q) (Homo sapiens, UniProt P30613, R510Q); experiment: Luminescence Assay Protocol (Kinase Glo Plus), PKR(R510Q/without FBP); conditions: PKRR510Q, without FBP; for activation at 1.54 µM: read-out: F - AC50 LUM KGP woFBP % Fold @ 1.54 μM mean; for AC50: gmean, read-out: D - AC50 LUM KGP woFBP AC50 μM gmean; for Emax: read-out: E - AC50 LUM KGP woFBP MAX % FOLD mean
Protocol: (§1) Example 47: PKR(Wt/without FBP), PKR(G332S/with FBP), PKR(R510Q/without FBP)
(§2) The phosphorylation of Adenosine-5′-diphosphate (ADP) by various mutants of PKR was determined by the Kinase Glo Plus Assay (Promega) in the presence or absence of FBP [D-Fructose-1,6-diphosphate; BOC Sciences, CAS: 81028-91-3] as follows. Unless otherwise indicated, all reagents were purchased from Sigma-Aldrich. All reagents were prepared in buffer containing 50 mM Tris-HCl, 100 mM KCl, 5 mM MgCl2, and 0.01% Triton X100, 0.03% BSA, and 1 mM DTT. Enzyme and PEP [Phospho(enol) pyruvic acid] were added at 2× to all wells of an assay-ready plate containing serial dilutions of test compounds or DMSO vehicle. Final enzyme concentrations for PKR(wt), PKR(R510Q), and PKR(G332S) were 0.8 nM, 0.8 nM, and 10 nM respectively. Final PEP concentration was 100 μM. The Enzyme/PEP mixture was incubated with compounds for 30 minutes at RT before the assay was initiated with the addition of 2×ADP [Adenosine-5′-diphosphate] and KinaseGloPlus. Final concentration of ADP was 100 μM. […] For assays containing FBP, that reagent is added at 30 μM upon reaction initiation. Reactions were allowed to progress for 45 minutes at RT until luminescence was recorded by the BMG PHERAstar FS Multilabel Reader. All compounds were tested in triplicate at concentrations ranging from 42.5 μM to 2.2 nM in 0.83% DMSO.
(§3) Luminescence values were converted to % Fold increase by normalizing to the average of the DMSO control and multiplying by 100. Max, min, slope and AC50 were determined by the standard four parameter fit algorithm of ActivityBase XE Runner. Compounds were evaluated with three parameters—AC50, MAX % Fold, and % Fold@1.54 μM (FIG. 1). The AC50 value for a compound is the concentration […] corresponding to the midway between the maximum and minimum values of the four parameter logistic curve fit (i.e., at which the % fold increase along the four parameter logistic curve fit is halfway between MAX % Fold and MIN % Fold (% Fold Midpoint)), MAX % Fold is the highest fold increase observed at any concentration of compound, and % Fold@1.54 μM is the fold increase at a compound concentration of 1.54 μM. The parameter % Fold@1.54 μM was selected to capture elements of both the AC50 and MAX % Fold and to provide a ranking based on both potency and effect. The compound concentration of 1.54 μM was chosen as one that can optimally differentiate the set of compounds based on the range of activities observed.
(§4) As set forth in Tables 6 and 7 below, AC50 values (columns A, D, G) are defined as follows: ≤0.1 μM (+++); >0.1 μM and ≤1.0 μM (++); >1.0 μM and ≤40 μM (+); >40 μM (0). Max % FOLD values (columns B, E, H) are defined as follows: ≤75% (+); >75% and ≤250% (++); >250% and ≤500% (+++). % Fold@1.54 μM values (columns C, F, I) are defined as follows: ≤75% (+); >75% and ≤250% (++); >250% and ≤500% (+++).

PKR(wt) = PKR(wt) (Homo sapiens, UniProt P30613); experiment: Luminescence Assay Protocol (Kinase Glo Plus), PKR(Wt/without FBP); conditions: without FBP; for activation at 1.54 µM: read-out: I - AC50 LUM KGP woFBP % Fold @ 1.54 μM mean; for AC50: gmean, read-out: G - AC50 LUM KGP woFBP AC50 μM gmean; for Emax: read-out: H - AC50 LUM KGP woFBP MAX % FOLD mean
Outline: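 Enzyme (wt 0.8 nM, R510Q 0.8 nM, G332S 10 nM) was preincubated 30 min at RT with compound and 100 μM PEP in Tris/KCl/MgCl2 buffer, then started with 100 μM ADP, plus 30 μM FBP for G332S. Luminescence was read after 45 min at RT. AC50 came from a four-parameter fit of % fold over DMSO across 42.5 μM–2.2 nM.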

PKR(G332S) = PKR(G332S) (Homo sapiens, UniProt P30613, G332S); experiment: Luminescence Assay Protocol (Kinase Glo Plus), PKR(G332S/with FBP); conditions: PKRG332S, with FBP; for activation at 1.54 µM: read-out: C - AC50 LUM KGP FBP % Fold @ 1.54 μM mean; for AC50: gmean, read-out: A - AC50 LUM KGP FBP AC50 μM gmean; for Emax: read-out: B - AC50 LUM KGP FBP MAX % FOLD mean
Protocol: as §1, §2, §3, §4

[1] = highest % fold increase at any concentration

Chain of PKR(R510Q) (P30613 whole entry R510Q): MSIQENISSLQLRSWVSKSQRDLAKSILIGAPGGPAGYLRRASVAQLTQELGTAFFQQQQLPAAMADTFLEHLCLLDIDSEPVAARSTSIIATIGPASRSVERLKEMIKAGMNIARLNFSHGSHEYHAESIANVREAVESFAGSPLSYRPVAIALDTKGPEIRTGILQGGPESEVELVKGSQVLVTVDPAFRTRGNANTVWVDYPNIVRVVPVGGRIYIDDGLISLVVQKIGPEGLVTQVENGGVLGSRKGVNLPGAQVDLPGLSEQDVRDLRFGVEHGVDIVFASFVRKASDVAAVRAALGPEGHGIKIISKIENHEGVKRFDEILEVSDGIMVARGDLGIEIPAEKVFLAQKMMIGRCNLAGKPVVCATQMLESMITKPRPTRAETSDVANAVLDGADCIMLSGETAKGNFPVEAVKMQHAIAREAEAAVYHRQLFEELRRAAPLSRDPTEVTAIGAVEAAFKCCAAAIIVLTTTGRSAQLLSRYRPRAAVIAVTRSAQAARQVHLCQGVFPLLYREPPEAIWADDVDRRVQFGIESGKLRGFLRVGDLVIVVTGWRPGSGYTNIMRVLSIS
Chain of PKR(wt) (P30613 whole entry): as the sequence (P30613 whole entry R510Q) above, with Q510R counted along it
Chain of PKR(G332S) (P30613 whole entry G332S): as the sequence (P30613 whole entry R510Q) above, with G332S, Q510R counted along it

| activation at 1.54 µM (PKR(R510Q); compound 1.54 μM) | AC50 (PKR(R510Q)) | Emax (PKR(R510Q); [1]) | activation at 1.54 µM (PKR(wt); compound 1.54 μM) | AC50 (PKR(wt)) | Emax (PKR(wt); [1]) | activation at 1.54 µM (PKR(G332S); compound 1.54 μM) | AC50 (PKR(G332S)) | Emax (PKR(G332S); [1]) | F - AC50 LUM KGP woFBP % Fold @ 1.54 μM mean (PKR(R510Q); compound 1.54 μM) | E - AC50 LUM KGP woFBP MAX % FOLD mean (PKR(R510Q); [1]) | I - AC50 LUM KGP woFBP % Fold @ 1.54 μM mean (PKR(wt); compound 1.54 μM) | H - AC50 LUM KGP woFBP MAX % FOLD mean (PKR(wt); [1]) | C - AC50 LUM KGP FBP % Fold @ 1.54 μM mean (PKR(G332S); compound 1.54 μM) | B - AC50 LUM KGP FBP MAX % FOLD mean (PKR(G332S); [1]) | SMILES |
| --- | --- | --- | --- | --- | --- | --- | --- | --- | --- | --- | --- | --- | --- | --- | --- |
| 250 to 500% | 0.1 to 1 µM | 250 to 500% | 250 to 500% | ≤ 0.1 µM | 250 to 500% | 75 to 250% | ≤ 0.1 µM | 75 to 250% | – | – | – | – | – | – | C[C@@H](O)[C@H](C(=O)N1CC2=C(C1)CN(S(=O)(=O)c1ccc(OC(F)F)cc1)C2)c1ccccc1 (racemic) [Example 27, (2R,3R and 2S,3S)-1-(5-((4-(difluoromethoxy)phenyl)sulfonyl)-3,4,5,6-tetrahydropyrrolo[3,4-c]pyrrol-2(1H)-yl)-3-hydroxy-2-phenylbutan-1-one] |
| 250 to 500% | ≤ 0.1 µM | 250 to 500% | 75 to 250% | 0.1 to 1 µM | 75 to 250% | 75 to 250% | > 40 µM | 75 to 250% | – | – | – | – | – | – | CC(C)(CO)C(=O)N1CC2=C(C1)CN(S(=O)(=O)c1ccc3c(c1)NCCO3)C2 [Example 37, 1-(5-((3,4-dihydro-2H-benzo[b][1,4]oxazin-6-yl)sulfonyl)-3,4,5,6-tetrahydropyrrolo[3,4-c]pyrrol-2(1H)-yl)-3-hydroxy-2,2-dimethylpropan-1-one] |
| 75 to 250% | 1 to 40 µM | 250 to 500% | 75 to 250% | 0.1 to 1 µM | 75 to 250% | 75 to 250% | > 40 µM | 75 to 250% | – | – | – | – | – | – | O=C(C1CCCOC1)N1CC2=C(C1)CN(S(=O)(=O)c1ccc3ncsc3c1)C2 (stereo not drawn) [Example 15, (5-(benzo[d]thiazol-6-ylsulfonyl)-3,4,5,6-tetrahydropyrrolo[3,4-c]pyrrol-2(1H)-yl)(tetrahydro-2H-pyran-3-yl)methanone] |
| 250 to 500% | ≤ 0.1 µM | 250 to 500% | 250 to 500% | ≤ 0.1 µM | 250 to 500% | 75 to 250% | ≤ 0.1 µM | 75 to 250% | – | – | – | – | – | – | O=C([C@H](CO)c1ccccc1)N1CC2=C(C1)CN(S(=O)(=O)c1ccc3ncsc3c1)C2 [Example 29, (S)-1-(5-(benzo[d]thiazol-6-ylsulfonyl)-3,4,5,6-tetrahydropyrrolo[3,4-c]pyrrol-2(1H)-yl)-3-hydroxy-2-phenylpropan-1-one] |
| 75 to 250% | 1 to 40 µM | 75 to 250% | 75 to 250% | 0.1 to 1 µM | 75 to 250% | 75 to 250% | > 40 µM | 75 to 250% | – | – | – | – | – | – | COCCC(=O)N1CC2=C(C1)CN(S(=O)(=O)c1ccc3c(c1)N(C)CCO3)C2 [Example 53, 3-methoxy-1-(5-((4-methyl-3,4-dihydro-2H-benzo[b][1,4]oxazin-6-yl)sulfonyl)-3,4,5,6-tetrahydropyrrolo[3,4-c]pyrrol-2(1H)-yl)propan-1-one] |
| 75 to 250% | 1 to 40 µM | 250 to 500% | 75 to 250% | 0.1 to 1 µM | 250 to 500% | 75 to 250% | ≤ 0.1 µM | 75 to 250% | – | – | – | – | – | – | CC(C)(O)[C@@H](C(=O)N1CC2=C(C1)CN(S(=O)(=O)c1ccc(OC(F)F)cc1)C2)c1ccccc1 [Example 28, (S)-1-(5-((4-(difluoromethoxy)phenyl)sulfonyl)-3,4,5,6-tetrahydropyrrolo[3,4-c]pyrrol-2(1H)-yl)-3-hydroxy-3-methyl-2-phenylbutan-1-one] |
| 250 to 500% | ≤ 0.1 µM | 250 to 500% | 250 to 500% | ≤ 0.1 µM | 250 to 500% | 75 to 250% | 0.1 to 1 µM | 75 to 250% | – | – | – | – | – | – | O=C([C@H](CO)c1ccccc1)N1CC2=C(C1)CN(S(=O)(=O)c1ccccn1)C2 [Example 51, (2S)-3-hydroxy-2-phenyl-1-[5-(pyridine-2-sulfonyl)-1H,2H,3H,4H,5H,6H-pyrrolo[3,4-c]pyrrol-2-yl]propan-1-one] |
| 75 to 250% | 1 to 40 µM | 250 to 500% | 75 to 250% | 0.1 to 1 µM | 75 to 250% | 75 to 250% | 1 to 40 µM | 75 to 250% | – | – | – | – | – | – | O=C(C1CCCOC1)N1CC2=C(C1)CN(S(=O)(=O)c1cnc3c(c1)OCCO3)C2 (single isomer, unassigned) [Example 5, (R or S)-(5-((2,3-dihydro-[1,4]dioxino[2,3-b]pyridin-7-yl)sulfonyl)-3,4,5,6-tetrahydropyrrolo[3,4-c]pyrrol-2(1H)-yl)(tetrahydro-2H-pyran-3-yl)methanone] |
| 250 to 500% | 0.1 to 1 µM | 250 to 500% | 250 to 500% | 0.1 to 1 µM | 250 to 500% | 75 to 250% | ≤ 0.1 µM | 75 to 250% | – | – | – | – | – | – | O=C(C1CCOC1)N1CC2=C(C1)CN(S(=O)(=O)c1ccc3c(c1)NCCO3)C2 (stereo not drawn) [Example 39, (5-((3,4-dihydro-2H-benzo[b][1,4]oxazin-6-yl)sulfonyl)-3,4,5,6-tetrahydropyrrolo[3,4-c]pyrrol-2(1H)-yl)(tetrahydrofuran-3-yl)methanone] |
| – | ≤ 0.1 µM | – | – | ≤ 0.1 µM | – | – | 0.1 to 1 µM | – | +++ (>250% and ≤500% (+++)) | +++ (>250% and ≤500% (+++)) | ++ (>75% and ≤250% (++)) | ++ (>75% and ≤250% (++)) | ++ (>75% and ≤250% (++)) | ++ (>75% and ≤250% (++)) | O=C(C1CCCOC1)N1CC2=C(C1)CN(S(=O)(=O)c1ccc3c(c1)NCCO3)C2 (single isomer, unassigned) [Example 34, (R or S)-(5-((3,4-dihydro-2H-benzo[b][1,4]oxazin-6-yl)sulfonyl)-3,4,5,6-tetrahydropyrrolo[3,4-c]pyrrol-2(1H)-yl)(tetrahydro-2H-pyran-3-yl)methanone] |
| 75 to 250% | 1 to 40 µM | 250 to 500% | 75 to 250% | 0.1 to 1 µM | 250 to 500% | 75 to 250% | 0.1 to 1 µM | 75 to 250% | – | – | – | – | – | – | O=C([C@@H]1CCOC1)N1CC2=C(C1)CN(S(=O)(=O)c1ccc3ncsc3c1)C2 [Example 20, (R)-(5-(benzo[d]thiazol-6-ylsulfonyl)-3,4,5,6-tetrahydropyrrolo[3,4-c]pyrrol-2(1H)-yl)(tetrahydrofuran-3-yl)methanone] |

— patent publication US11649242B2, “Pyrrolopyrrole compositions as pyruvate kinase (PKR) activators” (FORMA Therapeutics, Inc., priority 2017, dated 2023)
